Reference: patent publication US10870652B2, “Compounds and methods for modulating bruton's tyrosine kinase” (CORVUS PHARMACEUTICALS, INC., priority 2016, dated 2020)

Assays:
Format in all cases: biochemical
ITK = target: T1, ITK (Homo sapiens, UniProt Q08881); test: ITK IC50 kinase inhibition assay
T1 sequence (Q08881 1-620): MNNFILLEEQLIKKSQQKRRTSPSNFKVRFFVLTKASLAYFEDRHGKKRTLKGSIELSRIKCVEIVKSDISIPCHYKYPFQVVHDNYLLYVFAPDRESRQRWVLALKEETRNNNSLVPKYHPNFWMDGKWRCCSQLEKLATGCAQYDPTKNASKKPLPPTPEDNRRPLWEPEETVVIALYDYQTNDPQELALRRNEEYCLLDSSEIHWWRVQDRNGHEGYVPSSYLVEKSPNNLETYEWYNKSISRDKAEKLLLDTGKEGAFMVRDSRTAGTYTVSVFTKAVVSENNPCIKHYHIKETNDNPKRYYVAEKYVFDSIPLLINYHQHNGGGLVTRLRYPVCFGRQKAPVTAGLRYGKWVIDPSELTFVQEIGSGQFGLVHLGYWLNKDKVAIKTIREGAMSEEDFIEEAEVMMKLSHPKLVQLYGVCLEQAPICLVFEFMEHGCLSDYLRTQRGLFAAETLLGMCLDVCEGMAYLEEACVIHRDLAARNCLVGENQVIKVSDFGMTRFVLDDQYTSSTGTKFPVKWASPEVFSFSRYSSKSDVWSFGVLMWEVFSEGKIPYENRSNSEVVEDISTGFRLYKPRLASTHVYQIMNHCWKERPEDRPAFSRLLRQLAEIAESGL

BTK = BTK (Homo sapiens, UniProt Q06187); test: BTK IC50 kinase inhibition assay
Chain of BTK (Q06187 whole entry): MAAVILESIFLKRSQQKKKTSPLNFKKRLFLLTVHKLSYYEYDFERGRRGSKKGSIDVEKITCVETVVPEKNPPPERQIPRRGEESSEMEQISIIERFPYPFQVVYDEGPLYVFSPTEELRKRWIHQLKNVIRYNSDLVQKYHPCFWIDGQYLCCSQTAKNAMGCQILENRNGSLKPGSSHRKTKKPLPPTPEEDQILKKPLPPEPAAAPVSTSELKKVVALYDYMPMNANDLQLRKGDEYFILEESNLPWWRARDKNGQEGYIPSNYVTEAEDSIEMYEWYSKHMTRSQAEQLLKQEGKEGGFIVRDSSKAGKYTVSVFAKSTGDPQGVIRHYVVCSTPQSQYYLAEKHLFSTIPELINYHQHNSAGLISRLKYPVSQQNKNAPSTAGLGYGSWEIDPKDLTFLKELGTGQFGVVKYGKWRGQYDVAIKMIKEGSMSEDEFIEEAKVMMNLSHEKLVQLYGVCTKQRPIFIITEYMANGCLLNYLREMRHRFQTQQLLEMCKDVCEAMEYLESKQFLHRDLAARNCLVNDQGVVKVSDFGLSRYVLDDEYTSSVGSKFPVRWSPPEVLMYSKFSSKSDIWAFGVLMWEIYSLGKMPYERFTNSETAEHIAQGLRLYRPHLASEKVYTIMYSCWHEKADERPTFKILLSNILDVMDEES

JAK3 = target: T2, JAK3 (Homo sapiens, UniProt P52333); test: JAK3 IC50 kinase inhibition assay
T2 sequence (P52333 1-1124): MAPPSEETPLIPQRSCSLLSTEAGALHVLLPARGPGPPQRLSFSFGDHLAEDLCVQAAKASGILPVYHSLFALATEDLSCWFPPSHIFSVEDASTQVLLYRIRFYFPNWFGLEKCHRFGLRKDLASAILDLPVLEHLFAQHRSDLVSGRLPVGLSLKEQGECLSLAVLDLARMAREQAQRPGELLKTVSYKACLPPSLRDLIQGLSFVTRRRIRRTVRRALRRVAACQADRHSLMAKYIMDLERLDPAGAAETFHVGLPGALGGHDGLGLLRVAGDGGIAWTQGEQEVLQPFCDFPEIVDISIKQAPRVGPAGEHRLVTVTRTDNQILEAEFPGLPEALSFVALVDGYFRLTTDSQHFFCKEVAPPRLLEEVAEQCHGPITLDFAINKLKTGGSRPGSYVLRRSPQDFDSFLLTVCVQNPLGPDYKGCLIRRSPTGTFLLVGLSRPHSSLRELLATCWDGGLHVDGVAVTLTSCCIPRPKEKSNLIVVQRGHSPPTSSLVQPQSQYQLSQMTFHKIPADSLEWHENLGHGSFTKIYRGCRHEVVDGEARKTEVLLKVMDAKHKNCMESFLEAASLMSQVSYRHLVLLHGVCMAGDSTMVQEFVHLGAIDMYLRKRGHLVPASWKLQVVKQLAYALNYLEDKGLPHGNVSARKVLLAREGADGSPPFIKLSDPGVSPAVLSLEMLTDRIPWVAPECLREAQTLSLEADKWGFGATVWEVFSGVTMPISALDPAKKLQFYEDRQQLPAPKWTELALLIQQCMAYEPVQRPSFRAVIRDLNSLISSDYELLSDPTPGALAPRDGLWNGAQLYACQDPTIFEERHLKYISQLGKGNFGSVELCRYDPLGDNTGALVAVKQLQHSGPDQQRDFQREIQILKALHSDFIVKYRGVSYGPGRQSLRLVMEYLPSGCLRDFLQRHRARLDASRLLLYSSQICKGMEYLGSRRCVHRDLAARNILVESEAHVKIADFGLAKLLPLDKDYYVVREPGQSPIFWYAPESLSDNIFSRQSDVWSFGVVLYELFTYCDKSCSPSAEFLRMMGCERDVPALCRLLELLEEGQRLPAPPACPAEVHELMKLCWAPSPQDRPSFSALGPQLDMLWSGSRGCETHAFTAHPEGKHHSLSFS

TXK = target: T3, TXK (Homo sapiens, UniProt P42681); test: TXK IC50 kinase inhibition assay
T3 sequence (P42681 1-527): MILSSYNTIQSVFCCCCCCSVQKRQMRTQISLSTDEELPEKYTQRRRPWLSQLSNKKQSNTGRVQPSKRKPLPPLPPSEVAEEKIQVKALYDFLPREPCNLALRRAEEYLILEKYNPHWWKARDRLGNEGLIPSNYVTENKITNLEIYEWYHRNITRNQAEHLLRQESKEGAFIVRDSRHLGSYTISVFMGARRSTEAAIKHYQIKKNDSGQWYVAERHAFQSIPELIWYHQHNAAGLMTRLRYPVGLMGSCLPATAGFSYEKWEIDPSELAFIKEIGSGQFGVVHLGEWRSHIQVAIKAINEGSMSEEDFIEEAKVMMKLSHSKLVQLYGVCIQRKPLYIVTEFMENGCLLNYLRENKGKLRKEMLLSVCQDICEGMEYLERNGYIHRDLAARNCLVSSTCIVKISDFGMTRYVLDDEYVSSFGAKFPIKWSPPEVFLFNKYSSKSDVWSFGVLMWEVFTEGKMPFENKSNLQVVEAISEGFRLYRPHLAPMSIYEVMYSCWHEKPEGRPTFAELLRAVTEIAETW

Row | Compound | IC50 (ITK) [nM] | IC50 (BTK) [nM] | IC50 (JAK3) [nM] | IC50 (TXK) [nM]
1 | C=CC(=O)N1CCC[C@@H](n2nc(-c3cccc(Oc4ccccc4)c3)c3cncnc32)C1 [Compound A1, (R)-1-(3-(3-(3-phenoxyphenyl)-1H-pyrazolo[3,4-d]pyrimidin-1-yl)piperidin-1-yl)prop-2-en-1-one] | > 500 | < 100 | > 500 | 100 to 500
2 | C=CC(=O)N1CCC[C@@H](n2nc(-c3ccc(Oc4ccccc4)cc3F)c3cncnc32)C1 [Compound A2, (R)-1-(3-(3-(2-fluoro-4-phenoxyphenyl)-1H-pyrazolo[3,4-d]pyrimidin-1-yl)piperidin-1-yl)prop-2-en-1-one] | > 500 | < 100 | 100 to 500 | < 100
3 | C=CC(=O)N1CCC[C@@H](n2nc(-c3ccc(Oc4ccccc4)c(F)c3)c3cncnc32)C1 [Compound A3, (R)-1-(3-(3-(3-fluoro-4-phenoxyphenyl)-1H-pyrazolo[3,4-d]pyrimidin-1-yl)piperidin-1-yl)prop-2-en-1-one] | > 500 | < 100 | > 500 | < 100
4 | C=CC(=O)N1CCC[C@@H](n2nc(-c3ccc(Oc4ccccc4)cc3C)c3cncnc32)C1 [Compound A4, (R)-1-(3-(3-(2-methyl-4-phenoxyphenyl)-1H-pyrazolo[3,4-d]pyrimidin-1-yl)piperidin-1-yl)prop-2-en-1-one] | > 500 | < 100 | > 500 | < 100
5 | C=CC(=O)N1CCC[C@@H](n2nc(-c3ccc(Oc4ccccc4)c(C)c3)c3cncnc32)C1 [Compound A5, (R)-1-(3-(3-(3-methyl-4-phenoxyphenyl)-1H-pyrazolo[3,4-d]pyrimidin-1-yl)piperidin-1-yl)prop-2-en-1-one] | > 500 | < 100 | > 500 | 100 to 500
6 | C=CC(=O)N1CCC[C@@H](n2nc(-c3ccc(Oc4ccccc4)cc3)c3cncnc32)C1 [Compound A9, (R)-1-(3-(3-(4-phenoxyphenyl)-1H-pyrazolo[3,4-d]pyrimidin-1-yl)piperidin-1-yl)prop-2-en-1-one] | > 500 | < 100 | > 500 | < 100
7 | C=CC(=O)N1CC(n2nc(-c3ccc(Oc4ccccc4)cc3)c3cncnc32)C1 [Compound A13, 1-(3-(3-(4-phenoxyphenyl)-1H-pyrazolo[3,4-d]pyrimidin-1-yl)azetidin-1-yl)prop-2-en-1-one] | > 500 | 100 to 500 | > 500 | 100 to 500
8 | CC#CC(=O)N1CCC[C@@H](n2nc(-c3ccc(Oc4ccccc4)cc3)c3cncnc32)C1 [Compound A16, (R)-1-(3-(3-(4-phenoxyphenyl)-1H-pyrazolo[3,4-d]pyrimidin-1-yl)piperidin-1-yl)but-2-yn-1-one] | > 500 | > 500 | > 500 | > 500
9 | C=CC(=O)N1CC[C@@H](n2nc(-c3ccc(Oc4ccccc4)cc3F)c3cncnc32)C1 [Compound A17, (R)-1-(3-(3-(2-fluoro-4-phenoxyphenyl)-1H-pyrazolo[3,4-d]pyrimidin-1-yl)pyrrolidin-1-yl)prop-2-en-1-one] | > 500 | < 100 | > 500 | < 100
10 | CC#CC(=O)N1CC[C@@H](n2nc(-c3ccc(Oc4ccccc4)cc3)c3cncnc32)C1 [Compound A18, (R)-1-(3-(3-(4-phenoxyphenyl)-1H-pyrazolo[3,4-d]pyrimidin-1-yl)pyrrolidin-1-yl)but-2-yn-1-one] | > 500 | 100 to 500 | > 500 | > 500
11 | C=CC(=O)N1CCC[C@H]1Cn1nc(-c2ccc(Oc3ccccc3)cc2F)c2cncnc21 [Compound A19, (S)-1-(2-((3-(2-fluoro-4-phenoxyphenyl)-1H-pyrazolo[3,4-d]pyrimidin-1-yl)methyl)pyrrolidin-1-yl)prop-2-en-1-one] | > 500 | < 100 | > 500 | < 100
12 | CC#CC(=O)N1CCC[C@H]1Cn1nc(-c2ccc(Oc3ccccc3)cc2F)c2cncnc21 [Compound A20, (S)-1-(2-((3-(2-fluoro-4-phenoxyphenyl)-1H-pyrazolo[3,4-d]pyrimidin-1-yl)methyl)pyrrolidin-1-yl)but-2-yn-1-one] | > 500 | < 100 | > 500 | > 500

The next lines start with the values.

Row | IC50 (ITK) [nM] | IC50 (BTK) [nM] | IC50 (JAK3) [nM] | IC50 (TXK) [nM] | Compound
13 | > 500 | < 100 | > 500 | < 100 | C=CC(=O)N1CC[C@@H](n2nc(-c3ccc(Oc4ccccc4)cc3)c3cncnc32)C1 [Compound A6, (R)-1-(3-(3-(4-phenoxyphenyl)-1H-pyrazolo[3,4-d]pyrimidin-1-yl)pyrrolidin-1-yl)prop-2-en-1-one]
14 | > 500 | < 100 | > 500 | 100 to 500 | C=CC(=O)N1CCC[C@@H]1Cn1nc(-c2ccc(Oc3ccccc3)cc2)c2cncnc21 [Compound A7, (R)-1-(2-((3-(4-phenoxyphenyl)-1H-pyrazolo[3,4-d]pyrimidin-1-yl)methyl)pyrrolidin-1-yl)prop-2-en-1-one]
15 | > 500 | < 100 | > 500 | < 100 | C=CC(=O)N1CCC[C@H]1Cn1nc(-c2ccc(Oc3ccccc3)cc2)c2cncnc21 [Compound A8, (S)-1-(2-((3-(4-phenoxyphenyl)-1H-pyrazolo[3,4-d]pyrimidin-1-yl)methyl)pyrrolidin-1-yl)prop-2-en-1-one]
16 | > 500 | < 100 | > 500 | 100 to 500 | C=CC(=O)N1CC[C@H](n2nc(-c3ccc(Oc4ccccc4)cc3)c3cncnc32)C1 [Compound A12, (S)-1-(3-(3-(4-phenoxyphenyl)-1H-pyrazolo[3,4-d]pyrimidin-1-yl)pyrrolidin-1-yl)prop-2-en-1-one]
17 | > 500 | 100 to 500 | > 500 | 100 to 500 | C=CC(=O)N1CC[C@@H](Cn2nc(-c3ccc(Oc4ccccc4)cc3)c3cncnc32)C1 [Compound A14, (R)-1-(3-((3-(4-phenoxyphenyl)-1H-pyrazolo[34-d]pyrimidin-1-yl)methyl)pyrrolidin-1-yl)prop-2-en-1-one]
18 | > 500 | < 100 | > 500 | 100 to 500 | C=CC(=O)N1CC[C@H](Cn2nc(-c3ccc(Oc4ccccc4)cc3)c3cncnc32)C1 [Compound A15, (S)-1-(3-((3-(4-phenoxyphenyl)-1H-pyrazolo[3,4-d]pyrimidin-1-yl)methyl)pyrrolidin-1-yl)prop-2-en-1-one]
